Laboratory results published in patent US9833497B2, “Human originated EGF domain proteins and use of the same” (CHENGDU SOURCEBIO LIMITED-LIABILITY COMPANY, priority 2013, dated 2017).

Legend:
Type in all cases: cell-based
Citrobacter diversus = test: MIC against Gram-negative bacteria: Citrobacter diversus
Method in brief: (§1)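 MIC = lowest concentration of recombinant protein showing no growth. Test proteins: purified human-derived EGF domain proteins, two-fold dilution series, three wells per concentration; inoculum 5×10^5 CFU/mL in LB; incubation 37° C with shaking at 175 rpm.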

Enterobacter cloacae = test: MIC against Gram-negative bacteria: Enterobacter cloacae
Method in brief: as §1

Pseudomonas aeruginosa = test: MIC against Gram-negative bacteria: Pseudomonas aeruginosa
Method in brief: as §1

Serratia marcescens = test: MIC against Gram-negative bacteria: Serratia marcescens
Method in brief: as §1

Aeromonas hydrophila = test: MIC against Gram-negative bacteria: Aeromonas hydrophila
Method in brief: as §1

E. coli BL21 = test: MIC against Gram-negative bacteria: E. coli BL21
Method in brief: as §1

E. coli DH5α = test: Antibacterial activity: MIC and growth curve against E. coli DH5α in 96-well plate; settings: minimal inhibitory concentration against E. coli DH5α; 96-well plate, 5×10^5 CFU/mL, 37° C., judged after 8 h
Method in brief: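 MIC taken as lowest protein level with no bacterial growth, tracked by A600 every 30 min during 37 °C, 175 rpm culture. Two-fold protein series 50-12.5 μg/mL final, triplicate wells, against 5×10^5 CFU/mL of LB-washed mid-log cells.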

Klebsiella pneumonia = test: MIC against Gram-negative bacteria: Klebsiella pneumonia
Method in brief: as §1

Moraxella catarrhalis = test: MIC against Gram-negative bacteria: Moraxella catarrhalis
Method in brief: as §1

Proteus vulgaris = test: MIC against Gram-negative bacteria: Proteus vulgaris
Method in brief: as §1

Proteus mirabilis = test: MIC against Gram-negative bacteria: Proteus mirabilis
Method in brief: as §1

[1] = 96-well plate, 5×10^5 CFU/mL, 37° C., 10 h
[2] = C. diversus, 10 h cultivation at 37° C.
[3] = E. cloacae, 10 h cultivation at 37° C.
[4] = P. aeruginosa, 10 h cultivation at 37° C.
[5] = S. marcescens, 10 h cultivation at 37° C.
[6] = A. hydrophila, 10 h cultivation at 37° C.
[7] = E. coli BL21, 10 h cultivation at 37° C.
[8] = K. pneumonia, 10 h cultivation at 37° C.
[9] = M. catarrhalis, 10 h cultivation at 37° C.
[10] = P. vulgaris, 10 h cultivation at 37° C.
[11] = P. mirabilis, 10 h cultivation at 37° C.

Substance: PRT706 (EVNHCSNYCQNGGTCVPSVLGRPTCSCALGFTGPNCG; listed as Homo sapiens)
- MIC C. diversus (Citrobacter diversus; [1]): 12.5 mg/L
- MIC E. cloacae (Enterobacter cloacae; [1]): 25 mg/L
- MIC P. aeruginosa (Pseudomonas aeruginosa; [1]): 12.5 mg/L
- MIC S. marcescens (Serratia marcescens; [1]): 12.5 mg/L
- MIC A. hydrophila (Aeromonas hydrophila; [1]): 50 mg/L
- MIC E. coli BL21 (E. coli BL21; [1]): 50 mg/L
- MIC (E. coli DH5α): 25 mg/L
- MIC K. pneumonia (Klebsiella pneumonia; [1]): 12.5 mg/L
- MIC M. catarrhalis (Moraxella catarrhalis; [1]): 50 mg/L
- MIC P. vulgaris (Proteus vulgaris; [1]): 50 mg/L
- MIC P. mirabilis (Proteus mirabilis; [1]): 12.5 mg/L

Substance: PRT979 (LPDPCLSSPCAHGARCSVGPDGRFLCSCPPGYQGRSCR; listed as Homo sapiens)
- MIC (Citrobacter diversus; [2]): 100 mg/L
- MIC (Enterobacter cloacae; [3]): 50 mg/L
- MIC (Pseudomonas aeruginosa; [4]): 50 mg/L
- MIC (Serratia marcescens; [5]): 12.5 mg/L
- MIC (Aeromonas hydrophila; [6]): 12.5 mg/L
- MIC (E. coli BL21; [7]): 12.5 mg/L
- MIC (E. coli DH5α): 50 mg/L
- MIC (Klebsiella pneumonia; [8]): 12.5 mg/L
- MIC (Moraxella catarrhalis; [9]): 25 mg/L
- MIC (Proteus vulgaris; [10]): 25 mg/L
- MIC (Proteus mirabilis; [11]): 12.5 mg/L

Substance: PRT1356 (KEQRCPSDCHGQGRCVDGQCICHEGFTGLDCG; listed as Homo sapiens)
- MIC against C. diversus (Citrobacter diversus; Citrobacter diversus, 5×10^5 CFU/mL, 10 h cultivation at 37° C.): 12.5 mg/L
- MIC against E. cloacae (Enterobacter cloacae; Enterobacter cloacae, 5×10^5 CFU/mL, 10 h cultivation at 37° C.): 25 mg/L
- MIC against P. aeruginosa (Pseudomonas aeruginosa; Pseudomonas aeruginosa, 5×10^5 CFU/mL, 10 h cultivation at 37° C.): 12.5 mg/L
- MIC against S. marcescens (Serratia marcescens; Serratia marcescens, 5×10^5 CFU/mL, 10 h cultivation at 37° C.): 12.5 mg/L
- MIC against A. hydrophila (Aeromonas hydrophila; Aeromonas hydrophila, 5×10^5 CFU/mL, 10 h cultivation at 37° C.): 25 mg/L
- MIC against E. coli BL21 (E. coli BL21; E. coli BL21, 5×10^5 CFU/mL, 10 h cultivation at 37° C.): 50 mg/L
- MIC (E. coli DH5α): 12.5 mg/L
- MIC against K. pneumonia (Klebsiella pneumonia; Klebsiella pneumonia, 5×10^5 CFU/mL, 10 h cultivation at 37° C.): 50 mg/L
- MIC against M. catarrhalis (Moraxella catarrhalis; Moraxella catarrhalis, 5×10^5 CFU/mL, 10 h cultivation at 37° C.): 25 mg/L
- MIC against P. vulgaris (Proteus vulgaris; Proteus vulgaris, 5×10^5 CFU/mL, 10 h cultivation at 37° C.): 25 mg/L
- MIC against P. mirabilis (Proteus mirabilis; Proteus mirabilis, 5×10^5 CFU/mL, 10 h cultivation at 37° C.): 50 mg/L

Substance: PRT133 (CRGHCSSYGKLCRNGGKCRERPIGFFCDCTFSAYTGPFCS; listed as Homo sapiens)
- MIC (μg/mL) C. diversus (Citrobacter diversus; Citrobacter diversus, 96-well plate, 5×10^5 CFU/mL, 37° C., 10 h): 50 µg/mL
- MIC (μg/mL) E. cloacae (Enterobacter cloacae; Enterobacter cloacae, 96-well plate, 5×10^5 CFU/mL, 37° C., 10 h): 12.5 µg/mL
- MIC (μg/mL) P. aeruginosa (Pseudomonas aeruginosa; Pseudomonas aeruginosa, 96-well plate, 5×10^5 CFU/mL, 37° C., 10 h): 50 µg/mL
- MIC (μg/mL) S. marcescens (Serratia marcescens; Serratia marcescens, 96-well plate, 5×10^5 CFU/mL, 37° C., 10 h): 12.5 µg/mL
- MIC (μg/mL) A. hydrophila (Aeromonas hydrophila; Aeromonas hydrophila, 96-well plate, 5×10^5 CFU/mL, 37° C., 10 h): 25 µg/mL
- MIC (μg/mL) E. coli BL21 (E. coli BL21; E. coli BL21, 96-well plate, 5×10^5 CFU/mL, 37° C., 10 h): 12.5 µg/mL
- MIC (E. coli DH5α): 50 mg/L
- MIC (μg/mL) K. pneumonia (Klebsiella pneumonia; Klebsiella pneumonia, 96-well plate, 5×10^5 CFU/mL, 37° C., 10 h): 25 µg/mL
- MIC (μg/mL) M. catarrhalis (Moraxella catarrhalis; Moraxella catarrhalis, 96-well plate, 5×10^5 CFU/mL, 37° C., 10 h): 25 µg/mL
- MIC (μg/mL) P. vulgaris (Proteus vulgaris; Proteus vulgaris, 96-well plate, 5×10^5 CFU/mL, 37° C., 10 h): 50 µg/mL
- MIC (μg/mL) P. mirabilis (Proteus mirabilis; Proteus mirabilis, 96-well plate, 5×10^5 CFU/mL, 37° C., 10 h): 12.5 µg/mL

Substance: PRT1016 (RAGPCPPRGCSNGGTCQLMPEKDSTFHLCLCPPGFIGPDCE; listed as Homo sapiens)
- MIC (Citrobacter diversus; [2]): 50 mg/L
- MIC (Enterobacter cloacae; [3]): 12.5 mg/L
- MIC (Pseudomonas aeruginosa; [4]): 50 mg/L
- MIC (Serratia marcescens; [5]): 12.5 mg/L
- MIC (Aeromonas hydrophila; [6]): 25 mg/L
- MIC (E. coli BL21; [7]): 25 mg/L
- MIC (E. coli DH5α): 12.5 mg/L
- MIC (Klebsiella pneumonia; [8]): 25 mg/L
- MIC (Moraxella catarrhalis; [9]): 100 mg/L
- MIC (Proteus vulgaris; [10]): 25 mg/L
- MIC (Proteus mirabilis; [11]): 50 mg/L

Substance: PRT842 (CGCSFHSHCRKRGPGFCDECQDWTWGEHCERCRPGSFGNATGSRGCRP; listed as Homo sapiens)
- MIC (μg/mL) C. diversus (Citrobacter diversus; C. diversus, 10 h cultivation at 37° C., 5×10^5 CFU/mL): 12.5 µg/mL
- MIC (μg/mL) E. cloacae (Enterobacter cloacae; E. cloacae, 10 h cultivation at 37° C., 5×10^5 CFU/mL): 12.5 µg/mL
- MIC (μg/mL) P. aeruginosa (Pseudomonas aeruginosa; P. aeruginosa, 10 h cultivation at 37° C., 5×10^5 CFU/mL): 25 µg/mL
- MIC (μg/mL) S. marcescens (Serratia marcescens; S. marcescens, 10 h cultivation at 37° C., 5×10^5 CFU/mL): 25 µg/mL
- MIC (μg/mL) A. hydrophila (Aeromonas hydrophila; A. hydrophila, 10 h cultivation at 37° C., 5×10^5 CFU/mL): 25 µg/mL
- MIC (μg/mL) E. coli BL21 (E. coli BL21; E. coli BL21, 10 h cultivation at 37° C., 5×10^5 CFU/mL): 12.5 µg/mL
- MIC (E. coli DH5α): 12.5 mg/L
- MIC (μg/mL) K. pneumonia (Klebsiella pneumonia; K. pneumonia, 10 h cultivation at 37° C., 5×10^5 CFU/mL): 25 µg/mL
- MIC (μg/mL) M. catarrhalis (Moraxella catarrhalis; M. catarrhalis, 10 h cultivation at 37° C., 5×10^5 CFU/mL): 25 µg/mL
- MIC (μg/mL) P. vulgaris (Proteus vulgaris; P. vulgaris, 10 h cultivation at 37° C., 5×10^5 CFU/mL): 12.5 µg/mL
- MIC (μg/mL) P. mirabilis (Proteus mirabilis; P. mirabilis, 10 h cultivation at 37° C., 5×10^5 CFU/mL): 12.5 µg/mL
